Measurements reported in ChEMBL document CHEMBL3399990, “Synthesis of mycothiol conjugate analogues and evaluation of their antimycobacterial activity” (Bioorg Med Chem Lett, 2015).
In brackets after ≈: the same amount, converted by molar mass.

How the values were obtained:
1A9 = experiment: Cytotoxicity against human 1A9 cells after 48 hrs by MTT assay; type: functional, cell-based; settings: 1A9, 48 h
[1] = Cytotoxicity against human HL60 cells after 48 hrs by MTT assay; type: functional, cell-based; settings: HL-60, 48 h
[2] = system: Mycolicibacterium smegmatis; experiment: Bacteriostatic activity against Mycobacterium smegmatis after 96 hrs by resazurin fluorescence assay; type: functional

Row | Compound | IC50 (1A9) [µM] | IC50 [1] [µM] | MIC [2] [µM]
1 | N[C@@H](CSC(Cl)=C(Cl)Cl)C(=O)N[C@@H]1[C@@H](O)[C@H](O)[C@@H](CO)O[C@@H]1SC1CCCCC1 | 79 | 76 | 250 (≈ 127 µg/mL)
2 | N[C@@H](CSC(Cl)=C(Cl)Cl)C(=O)N[C@@H]1[C@@H](O)[C@H](O)[C@@H](CO)O[C@H]1SC1CCCCC1 | 121 | 112 | 250 (≈ 127 µg/mL)
3 | CC(C)(C)OC(=O)N[C@@H](CSC(Cl)=C(Cl)Cl)C(=O)N[C@@H]1[C@@H](O)[C@H](O)[C@@H](CO)O[C@@H]1SC1CCCCC1 | 103 | 60 | > 1000
4 | CC(C)(C)OC(=O)N[C@@H](CSC(Cl)=C(Cl)Cl)C(=O)N[C@@H]1[C@@H](O)[C@H](O)[C@@H](CO)O[C@H]1SC1CCCCC1 | 33 | 16.5 | > 1000
